These results are taken from ChEMBL document CHEMBL1201862, “PubChem BioAssay data set” (2004).

The structures appear in SMILES notation. The source made the active and inactive calls. A value given as a limit tells only on which side of the number the result lay.

For orientation: AC50 means the midpoint of the concentration-response curve, whichever way the signal moves. For orientation: EC50 means the concentration that produces a half-maximal response. As usually defined, the IC50 is the concentration that inhibits the measured activity by half.

Assay [1] concerns HeLa. Briefly: ATP-based viability loss in HeLa cells – cell-based, CellTiter-Glo luminescence, cherry-pick samples, cytotoxicity control for MITF activator project, dose response (AID 540259). The format is functional. As to conditions: Homo sapiens. A general note: In ATP-based viability assays light output follows the ATP content of the culture.
Assay [2] can be described thus: Luminescence Cell-Based Dose Confirmation HTS to Identify Activators of 5'UTR Stem-Loop Driven Alpha-Synuclein mRNA Translation in H4 Neuroglioblastoma Cells. [Related pubchem assays: 1829 (Project Summary), 1814 (Primary HTS)]. The format is functional.
Assay [3] deals with H4. Kind of assay: Luminescence Cell-Based Dose Response HTS to Identify Activators of 5'UTR Stem-Loop Driven Prion Protein mRNA Translation in H4 Neuroglioblastoma Cells. [Related pubchem assays: 1829 (Project Summary), 1814 (Primary HTS)]. The format is functional. As to conditions: Homo sapiens.
Assay [4] can be described thus: Luminescence Cell-Based Dose Response HTS to Identify Activators of Luciferase Translation or Activity in H4 […] Cells. [Related pubchem assays: 1829 (Project Summary), 1814 (Primary HTS)]. The format is functional.
For assay [5], the system named is HEK293. Kind of assay: cells. The class given is functional, cell-based. As to conditions: Homo sapiens.
Assay [6] has as its target T1, Nuclear receptor subfamily 0 group B member 1 (Homo sapiens, UniProt P51843).
T1 sequence (P51843 whole entry): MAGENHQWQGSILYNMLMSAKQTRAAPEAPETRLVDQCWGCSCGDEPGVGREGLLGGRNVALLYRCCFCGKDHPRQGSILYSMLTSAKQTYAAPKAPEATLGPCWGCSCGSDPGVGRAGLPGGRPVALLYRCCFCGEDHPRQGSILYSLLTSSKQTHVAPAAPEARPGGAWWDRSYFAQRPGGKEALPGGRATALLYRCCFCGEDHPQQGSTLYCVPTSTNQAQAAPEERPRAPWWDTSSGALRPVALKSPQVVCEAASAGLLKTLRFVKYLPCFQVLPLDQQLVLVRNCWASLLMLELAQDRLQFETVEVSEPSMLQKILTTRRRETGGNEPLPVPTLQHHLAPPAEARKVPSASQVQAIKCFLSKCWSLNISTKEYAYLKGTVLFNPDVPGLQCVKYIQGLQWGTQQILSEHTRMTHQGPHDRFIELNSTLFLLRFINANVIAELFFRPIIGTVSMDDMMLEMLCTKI
Briefly: Luminescence-based cell-based high throughput dose response assay for inhibitors of the orphan nuclear receptor subfamily 0, group B, member 1 (DAX1; NR0B1). [Related pubchem assays (depositor defined):AID504766, AID504790]. The format is functional.

Assay [7] deals with CAAX prenyl protease 2 (Homo sapiens, UniProt Q9Y256). Briefly: inhibition of Ras-converting CAAX protease Rce1 – biochemical, yeast membranes, quenched-peptide fluorescence, cherry-pick, dose response (AID 588849).
Assay [8] addresses T2, CAAX prenyl protease 2 (Saccharomyces cerevisiae S288c, UniProt Q03530).
T2 sequence (Q03530 whole entry): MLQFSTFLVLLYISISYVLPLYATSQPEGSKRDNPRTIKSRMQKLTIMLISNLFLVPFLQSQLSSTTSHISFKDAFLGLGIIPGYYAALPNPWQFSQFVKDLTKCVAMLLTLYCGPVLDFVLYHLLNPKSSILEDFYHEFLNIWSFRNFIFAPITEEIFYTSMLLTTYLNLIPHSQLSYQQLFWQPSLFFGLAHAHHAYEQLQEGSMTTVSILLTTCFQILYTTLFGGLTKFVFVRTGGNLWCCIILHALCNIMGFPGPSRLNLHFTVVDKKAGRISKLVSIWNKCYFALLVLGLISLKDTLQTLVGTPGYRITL
The class given is biochemical.

The target in assay [9] is Trypsin (Sus scrofa, UniProt P00761). Kind of assay: trypsin protease activity blockade – biochemical, quenched peptide fluorescence, cherry-pick, selectivity assay for Rce1 protease inhibitor project, dose response (AID 488789).
The target of assay [10] is Serine/threonine-protein phosphatase (Candida dubliniensis (strain CD36 / CBS 7987 / NCPF 3949 / NRRLY-17841) (Yeast), UniProt B9W6M3). Briefly: blockers of CaCl2-induced CDRE-lacZ signaling – S. cerevisiae, luminescence, secondary, dose response (AID 2388).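 Also: yeast reporter cells carrying a calcineurin-responsive lacZ construct stimulated with calcium chloride; luminescent beta-galactosidase reporter signal in whole cells rather than isolated phosphatase activity; potency for inhibition where a drop in reporter signal means calcineurin blockade.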 The class given is functional, cell-based.
The nature of assay [11]: NIH-3T3 fibroblast cytotoxicity, dose response, cytotoxicity control, cell-based, fluorescence, Alamar Blue, secondary assay (AID 2327).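 Also: NIH-3T3 mouse fibroblasts cultured with fluconazole at 8 µg/mL.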 The format is functional.
Assay [12] addresses ATP-dependent molecular chaperone HSP82 (Candida albicans (strain WO-1) (Yeast), UniProt C4YTQ8). Kind of assay: steroid-induced GRE reporter decrease in yeast – S. cerevisiae, luminescence, Hsp90 inhibitor project, dose response (AID 2400).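 Also: beta-galactosidase luminescence from glucocorticoid response element reporter as proxy for Hsp90 function; inhibitor potency where signal loss means Hsp90 inhibition.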 The format is functional, cell-based.
A short description of assay [13]: fluconazole-exposed Candida albicans growth modulators – fluorescence, retest, confirmation (AID 2467). The class given is functional, cell-based.
For assay [14], the target named is T3, Protein RecA (Mycobacterium tuberculosis, UniProt P9WHJ3).
T3 sequence (P9WHJ3 whole entry): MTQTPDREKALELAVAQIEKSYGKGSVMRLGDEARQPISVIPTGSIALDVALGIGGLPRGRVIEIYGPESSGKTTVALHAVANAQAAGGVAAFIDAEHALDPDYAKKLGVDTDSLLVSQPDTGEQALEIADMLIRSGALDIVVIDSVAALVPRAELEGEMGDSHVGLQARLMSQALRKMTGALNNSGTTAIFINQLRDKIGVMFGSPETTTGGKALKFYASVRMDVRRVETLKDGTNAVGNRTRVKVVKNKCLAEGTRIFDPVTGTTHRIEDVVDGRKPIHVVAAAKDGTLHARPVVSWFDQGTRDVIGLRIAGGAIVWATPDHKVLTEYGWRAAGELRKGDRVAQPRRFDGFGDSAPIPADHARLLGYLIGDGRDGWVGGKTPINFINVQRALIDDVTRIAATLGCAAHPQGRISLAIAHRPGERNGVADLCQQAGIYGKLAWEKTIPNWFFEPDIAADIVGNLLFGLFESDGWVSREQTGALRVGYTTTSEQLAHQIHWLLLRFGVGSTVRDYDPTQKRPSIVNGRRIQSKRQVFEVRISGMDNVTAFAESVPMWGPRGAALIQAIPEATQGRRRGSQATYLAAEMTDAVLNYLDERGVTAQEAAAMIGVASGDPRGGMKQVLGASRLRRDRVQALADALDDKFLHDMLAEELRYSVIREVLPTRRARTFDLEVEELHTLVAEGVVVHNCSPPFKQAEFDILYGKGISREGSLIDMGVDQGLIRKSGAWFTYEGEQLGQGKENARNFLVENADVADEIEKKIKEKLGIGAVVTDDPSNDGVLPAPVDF
Kind of assay: Fluorescence Cell-Free Homogeneous Dose Retest to Identify Inhibitors of RecA-Intein Splicing Activity. [Related pubchem assays (depositor defined):AID2097, AID2223, AID489010, AID492950]. The class given is functional.

For assay [15], the system named is HEK293. Kind of assay: cells. The conditions noted are these: Homo sapiens.
Assay [16] deals with Large T antigen (Simian virus 40, UniProt P03070). The class given is functional, Betapolyomavirus macacae.
In assay [17] the test system is HEK293. Briefly: cells. The conditions noted are these: Homo sapiens. This is another data set of the same source.
Assay [18] has as its target T4, Replicative DNA helicase DnaB (Mycobacterium tuberculosis, UniProt P9WMR3).
T4 sequence (P9WMR3 whole entry): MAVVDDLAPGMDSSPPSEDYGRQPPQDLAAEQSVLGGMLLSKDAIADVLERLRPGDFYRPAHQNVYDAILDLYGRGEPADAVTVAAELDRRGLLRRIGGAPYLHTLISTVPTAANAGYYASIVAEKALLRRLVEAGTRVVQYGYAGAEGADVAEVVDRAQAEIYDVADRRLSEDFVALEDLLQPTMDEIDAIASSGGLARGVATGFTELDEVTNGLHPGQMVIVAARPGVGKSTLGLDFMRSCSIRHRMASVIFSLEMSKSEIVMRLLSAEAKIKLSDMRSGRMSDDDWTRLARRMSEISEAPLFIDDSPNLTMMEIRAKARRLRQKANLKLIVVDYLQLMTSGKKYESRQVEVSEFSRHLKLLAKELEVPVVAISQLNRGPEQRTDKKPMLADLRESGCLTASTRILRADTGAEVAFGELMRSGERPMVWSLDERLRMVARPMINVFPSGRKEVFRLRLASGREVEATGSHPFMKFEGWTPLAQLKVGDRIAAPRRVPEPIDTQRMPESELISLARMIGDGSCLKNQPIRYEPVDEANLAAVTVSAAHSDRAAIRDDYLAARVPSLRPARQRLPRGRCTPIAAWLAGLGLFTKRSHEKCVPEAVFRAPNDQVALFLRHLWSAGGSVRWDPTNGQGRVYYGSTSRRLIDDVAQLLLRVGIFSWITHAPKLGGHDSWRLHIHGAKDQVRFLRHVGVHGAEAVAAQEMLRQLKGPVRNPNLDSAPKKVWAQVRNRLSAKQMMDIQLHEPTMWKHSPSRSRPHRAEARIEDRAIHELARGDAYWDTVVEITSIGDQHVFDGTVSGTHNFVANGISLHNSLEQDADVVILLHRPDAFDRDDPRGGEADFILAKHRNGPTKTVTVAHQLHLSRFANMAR
Briefly: DnaB intein splicing inhibitors, dose response, biochemical, cell-free fluorescence (AID 449749). The class given is functional.

Sequence of Trypsin (P00761 whole entry): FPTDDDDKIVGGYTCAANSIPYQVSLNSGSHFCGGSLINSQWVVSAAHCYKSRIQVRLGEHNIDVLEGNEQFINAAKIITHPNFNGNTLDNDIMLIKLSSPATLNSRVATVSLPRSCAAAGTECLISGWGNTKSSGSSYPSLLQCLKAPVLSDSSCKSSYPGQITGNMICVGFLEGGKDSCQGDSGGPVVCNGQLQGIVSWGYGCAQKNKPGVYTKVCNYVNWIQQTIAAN
Sequence of CAAX prenyl protease 2 (Homo sapiens, UniProt Q9Y256) (Q9Y256 whole entry): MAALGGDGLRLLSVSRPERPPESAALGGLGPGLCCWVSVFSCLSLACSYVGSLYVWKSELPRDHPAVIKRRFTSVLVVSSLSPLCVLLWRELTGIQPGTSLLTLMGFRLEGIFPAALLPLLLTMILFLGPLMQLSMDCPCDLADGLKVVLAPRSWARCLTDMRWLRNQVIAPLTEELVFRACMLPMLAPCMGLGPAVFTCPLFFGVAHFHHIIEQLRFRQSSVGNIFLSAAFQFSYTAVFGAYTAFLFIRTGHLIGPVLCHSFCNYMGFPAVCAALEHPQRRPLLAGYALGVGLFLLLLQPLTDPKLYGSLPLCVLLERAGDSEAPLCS
Sequence of Serine/threonine-protein phosphatase (B9W6M3 whole entry): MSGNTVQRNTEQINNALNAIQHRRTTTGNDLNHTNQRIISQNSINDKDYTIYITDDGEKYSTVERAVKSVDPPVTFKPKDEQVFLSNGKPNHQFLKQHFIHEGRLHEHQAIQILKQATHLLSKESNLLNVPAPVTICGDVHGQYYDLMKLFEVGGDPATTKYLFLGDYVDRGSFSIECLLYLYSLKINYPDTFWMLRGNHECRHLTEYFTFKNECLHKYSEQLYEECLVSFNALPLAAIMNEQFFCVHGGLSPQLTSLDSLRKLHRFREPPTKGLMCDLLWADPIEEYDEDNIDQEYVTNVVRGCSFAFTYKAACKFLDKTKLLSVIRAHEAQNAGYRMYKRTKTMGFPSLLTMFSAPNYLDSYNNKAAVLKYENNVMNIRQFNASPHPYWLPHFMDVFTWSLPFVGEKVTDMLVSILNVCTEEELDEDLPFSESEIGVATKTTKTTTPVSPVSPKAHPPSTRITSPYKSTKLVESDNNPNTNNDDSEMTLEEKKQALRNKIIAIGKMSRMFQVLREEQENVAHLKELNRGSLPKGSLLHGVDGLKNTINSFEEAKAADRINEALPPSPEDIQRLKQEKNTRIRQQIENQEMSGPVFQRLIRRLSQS
Sequence of ATP-dependent molecular chaperone HSP82 (C4YTQ8 whole entry): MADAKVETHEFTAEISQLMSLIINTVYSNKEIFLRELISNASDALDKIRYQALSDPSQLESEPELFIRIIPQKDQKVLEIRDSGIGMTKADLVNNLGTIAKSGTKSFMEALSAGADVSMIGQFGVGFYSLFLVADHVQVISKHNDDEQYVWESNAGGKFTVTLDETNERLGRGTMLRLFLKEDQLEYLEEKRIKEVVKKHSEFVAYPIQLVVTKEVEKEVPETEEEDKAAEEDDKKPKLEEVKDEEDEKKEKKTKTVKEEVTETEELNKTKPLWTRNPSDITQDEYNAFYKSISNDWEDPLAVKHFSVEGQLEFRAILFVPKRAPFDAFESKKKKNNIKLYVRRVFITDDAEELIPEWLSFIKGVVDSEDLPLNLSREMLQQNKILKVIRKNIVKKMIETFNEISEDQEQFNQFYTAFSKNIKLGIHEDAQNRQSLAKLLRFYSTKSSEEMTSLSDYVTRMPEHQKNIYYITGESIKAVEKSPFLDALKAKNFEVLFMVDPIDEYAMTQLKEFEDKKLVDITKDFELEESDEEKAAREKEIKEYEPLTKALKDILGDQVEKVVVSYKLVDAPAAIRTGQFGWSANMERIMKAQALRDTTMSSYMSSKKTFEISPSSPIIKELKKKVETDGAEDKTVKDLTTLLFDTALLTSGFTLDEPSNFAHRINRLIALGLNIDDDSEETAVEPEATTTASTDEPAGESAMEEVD
Sequence of Large T antigen (P03070 whole entry): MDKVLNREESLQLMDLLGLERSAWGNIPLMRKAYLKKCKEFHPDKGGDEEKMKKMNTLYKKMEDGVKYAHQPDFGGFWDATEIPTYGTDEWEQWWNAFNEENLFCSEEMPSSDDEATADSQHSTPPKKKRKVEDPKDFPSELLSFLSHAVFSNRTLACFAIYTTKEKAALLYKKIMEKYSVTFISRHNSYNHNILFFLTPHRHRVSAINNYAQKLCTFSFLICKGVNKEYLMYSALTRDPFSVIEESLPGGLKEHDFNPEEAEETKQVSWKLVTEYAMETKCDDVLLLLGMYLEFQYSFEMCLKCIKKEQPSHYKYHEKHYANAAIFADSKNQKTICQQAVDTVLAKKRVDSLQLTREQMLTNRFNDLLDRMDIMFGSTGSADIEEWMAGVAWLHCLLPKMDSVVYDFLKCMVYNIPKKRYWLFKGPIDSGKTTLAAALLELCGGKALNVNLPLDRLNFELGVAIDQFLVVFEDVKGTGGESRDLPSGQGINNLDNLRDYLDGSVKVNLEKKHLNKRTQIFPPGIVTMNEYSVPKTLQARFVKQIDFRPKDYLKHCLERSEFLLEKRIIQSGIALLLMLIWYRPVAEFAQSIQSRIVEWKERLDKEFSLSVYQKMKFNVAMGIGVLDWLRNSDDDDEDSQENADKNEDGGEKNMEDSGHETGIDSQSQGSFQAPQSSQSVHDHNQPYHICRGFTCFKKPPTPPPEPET

Regarding `O=c1oc2cc(Cl)ccc2n1CSc1nc2ccccc2s1`, the AC50 in assay [1] is 216 µM (active). The EC50 in assay [2] is 24.1 µM (active); in assay [3] it was 50.8 µM (active); in assay [4], 24.4 µM (active).
For the compound `O=C(CNC(=O)c1cc(O)nc2ccccc12)Nc1ccc(F)c(F)c1`, the IC50 in assay [5] and in [6] was > 67.5 µM (inactive) each time.
For the compound `Cc1oc2c(CN3CCOCC3)c(O)ccc2c(=O)c1-c1ccccc1`, the AC50 in assay [7] was 10.3 µM (active); in assay [8], 11 µM (active); in assay [9], 9.64 µM (active).
For the compound `COc1ccc(C2C3=C(O)CC(C)(C)CC3=Nc3[nH]nc(C)c32)cc1` (stereo unspecified), the AC50 in assay [7] is 13.5 µM (active); in assay [9] it was > 100 µM (inactive).
Turning to `Cc1c(OCC(=O)NCC(O)c2ccccc2)ccc2c(-c3ccccc3)cc(=O)oc12` (stereo unspecified), the EC50 in [10] is > 180 µM (inactive); in assay [11], 80.8 µM (active); in [12], > 160 µM (inactive); in assay [13], 0.699 µM (active).
For the compound `O=c1c2ccccc2oc2cc(-c3ccc4cc[nH]c4c3)ccc12`, in [1], the AC50 is 53.5 µM (active).
As for `O=C(CCl)Nc1ccc(N2CCCCCC2)cc1`, the concentration giving a half-maximal response (EC50) is 7.62 µM (active) in assay [14], > 59.7 µM (inactive) in assay [15] and > 59.7 µM (inactive) in assay [17]. In addition, in [16], the IC50 is 18.9 µM (active). In assay [18], the concentration at half-maximal activity (AC50) was 14.3 µM (active).
